Reference: BindingDB's records for doi:10.1016/j.bmc.2007.07.016 (Waseda University, 2007)

Target: T1, Ubiquitin carboxyl-terminal hydrolase isozyme L3 (Homo sapiens, UniProt P15374)
T1 sequence (P15374 whole entry): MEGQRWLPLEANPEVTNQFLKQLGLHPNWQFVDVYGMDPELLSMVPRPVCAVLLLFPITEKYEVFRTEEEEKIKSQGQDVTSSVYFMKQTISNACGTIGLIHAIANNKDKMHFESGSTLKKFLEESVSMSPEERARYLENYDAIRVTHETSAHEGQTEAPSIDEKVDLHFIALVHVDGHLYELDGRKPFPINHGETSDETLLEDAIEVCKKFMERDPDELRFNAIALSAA
Assay: Enzyme Inhibition Assay
Conditions: pH 7.8; 22 °C
Protocol: Enzyme reactions were carried out on Costar 96-well black assay plates. After the reaction, AMC fluorescence (excitation wavelength: 355 nm, emission wavelength: 460 nm) was subsequently measured 40 times every 3 s with a Wallac 1420 multi-label counter. Initial velocities (from 0 to 30 s) were used for IC50 determination, using GraphPad Prism 4 software.

IC50 [µM] | SMILES
154 | COc1ccc(C2C(C(=O)c3cccs3)C(=O)C(=O)N2c2nncs2)cc1 (stereo not drawn)
103 | Cc1ccc(C(=O)C2C(=O)C(=O)N(Cc3ccccc3)C2c2cccnc2)o1 (stereo not drawn) [1-benzyl-3-hydroxy-4-[(5-methylfuran-2-yl)carbonyl]-5-(pyridin-3-yl)-2,5-dihydro-1H-pyrrol-2-one]
> 386 | COc1cccc(N(CC(=O)NC2CCCC2)S(=O)(=O)c2ccccc2)c1 [2-[benzene(3-methoxyphenyl)sulfonamido]-N-cyclopentylacetamide]
> 387 | Nc1nc(CSc2nnc(-c3ccco3)n2-c2ccccc2)cs1 [4-({[5-(furan-2-yl)-4-phenyl-4H-1,2,4-triazol-3-yl]sulfanyl}methyl)-1,3-thiazol-2-amine]
123 | Cc1ccc(C(=O)C2C(=O)C(=O)N(Cc3cccnc3)C2c2ccc(F)cc2)o1 (stereo not drawn) [5-(4-fluorophenyl)-3-hydroxy-4-[(5-methylfuran-2-yl)carbonyl]-1-(pyridin-3-ylmethyl)-2,5-dihydro-1H-pyrrol-2-one]
> 401 | COc1ccc(S(=O)(=O)N(CC(=O)NC2CC2)c2ccc(C)cc2)cc1 [N-cyclopropyl-2-[(4-methoxybenzene)(4-methylphenyl)sulfonamido]acetamide]
> 334 | COc1ccc(N(CC(=O)NC2CC2)S(=O)(=O)c2ccc(C)cc2)cc1 [N-cyclopropyl-2-[(4-methoxyphenyl)(4-methylbenzene)sulfonamido]acetamide]
> 331 | CCS(=O)(=O)Nc1cccc(C2=NN(C(C)=O)C(c3cccs3)C2)c1 (stereo not drawn) [N-{3-[1-acetyl-5-(thiophen-2-yl)-4,5-dihydro-1H-pyrazol-3-yl]phenyl}ethane-1-sulfonamide]
